Laboratory results as given in patent publication US6803226B2, “Method of forming an artificial Shiro of Matsutake” (The University of Tokyo, priority 2001, dated 2004).

Test system: Matsutake hyphae (strain Tm 89)
Assay: Growth of Matsutake hyphae in soil containing Tween 80 additive, determined by ergosterol amount
Assay type: cell-based, Tricholoma Matsutake
Conditions: Tween 80 additive 1, 2 or 5 wt % vs 0 wt %, 20 wt % of soil, one month incubation at 25±1° C. in the dark, FIG. 1
Protocol: The culture substrate containing an active principle prepared as described above is put into a sterile container (a Petri-dish, etc.). A hypha solution containing Matsutake hyphae is inoculated into the culture substrate in the sterile container such that the hypha solution is spread throughout the culture substrate. Culture of Matsutake hyphae can be performed at 25±1° C. in the dark. After 1 to 3 month's culture of Matsutake hyphae, a piece of the grown hyphae (i.e., a Shiro) are taken as a sample, and the growth amount of the hyphae is determined based on the amount of ergosterol. Ergosterol can be quantified as follows. After a sample of a Shiro is freeze-dried (EYELA, FDU-830), 1 g of the sample is taken and extracted with 2.5 mL of ethanol (99.5%). The obtained extract is loaded into HPLC (high-performance liquid chromatography; HITACHI, Column L-7300; UV Detector L-7400; Autosampler L-7200; Pump L-7100; Integrator D-7500) to quantify the amount of ergosterol in the extract. With respect to the details of the quantification procedure, reference should be made to Martin et al. (1990) Mycol. Res. 94: 1059-1064. About one week after the initiation of the culture, it is observed that the hyphae are grown on the surface of the culture substrate. About 4 weeks after the initiation of the culture, increase in the growth amount of the hyphae is found. […]

SMILES: CCCCCCCC/C=C\CCCCCCCC(=O)OCCOCC(OCCO)C1OCC(OCCO)C1OCCO (stereo not shown) [Tween 80, Polyoxyethylene (20) Sorbitan Monooleate]
- growth of Matsutake hyphae (amount of ergosterol): significantly enhanced
